Results reported in PubChem BioAssay (NCI).
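These data come from cells grown in 96-well plates and exposed to compound for 48 hours at five concentrations. At the TGI there is no net growth.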

Tests used:
Test in all cases: DTP human tumour cell line panel, 48 h
SK-MEL-5 melanoma = system: SK-MEL-5 melanoma
PC-3 prostate = system: PC-3 prostate
RXF 393 renal = system: RXF 393 renal
NCI-H226 lung = system: NCI-H226 lung
HCT-116 colon = system: HCT-116 colon
SNB-19 CNS = system: SNB-19 CNS
LOX IMVI melanoma = system: LOX IMVI melanoma
IGROV1 ovarian = system: IGROV1 ovarian
UACC-62 melanoma = system: UACC-62 melanoma
COLO 205 colon = system: COLO 205 colon
786-0 renal = system: 786-0 renal
SR leukemia = system: SR leukemia
SF-268 CNS = system: SF-268 CNS
SNB-75 CNS = system: SNB-75 CNS

SMILES: O=C1Oc2cc3c(c4cccc1c24)O[C@H](c1ccccc1)[C@@H](c1ccccc1)[C@@H]3c1ccc(Cl)cc1
- TGI (SK-MEL-5 melanoma): > 100 µM
- TGI (PC-3 prostate): > 100 µM
- TGI (RXF 393 renal): 40.1 µM
- TGI (NCI-H226 lung): > 100 µM
- TGI (HCT-116 colon): > 100 µM
- TGI (SNB-19 CNS): > 100 µM
- TGI (LOX IMVI melanoma): > 100 µM
- TGI (IGROV1 ovarian): 77.4 µM
- TGI (UACC-62 melanoma): > 100 µM
- TGI (COLO 205 colon): > 100 µM
- TGI (786-0 renal): > 100 µM
- TGI (SR leukemia): 87.2 µM
- TGI (SF-268 CNS): > 100 µM

SMILES: COc1ccccc1CNC(=O)[C@H](Cc1ccc(O)cn1)NC(C)=O
- TGI (SK-MEL-5 melanoma): > 100 µM
- TGI (PC-3 prostate): > 100 µM
- TGI (RXF 393 renal): > 100 µM
- TGI (NCI-H226 lung): > 100 µM
- TGI (HCT-116 colon): > 100 µM
- TGI (SNB-19 CNS): > 100 µM
- TGI (LOX IMVI melanoma): > 100 µM
- TGI (IGROV1 ovarian): > 100 µM
- TGI (UACC-62 melanoma): > 100 µM
- TGI (COLO 205 colon): > 100 µM
- TGI (786-0 renal): > 100 µM
- TGI (SR leukemia): > 100 µM
- TGI (SF-268 CNS): > 100 µM

SMILES: Cc1cccc2c(=O)c3cccc([C@@H](C)C(=O)O)c3oc12
- TGI (SK-MEL-5 melanoma): > 100 µM
- TGI (PC-3 prostate): > 100 µM
- TGI (NCI-H226 lung): > 100 µM
- TGI (HCT-116 colon): > 100 µM
- TGI (SNB-19 CNS): > 100 µM
- TGI (LOX IMVI melanoma): > 100 µM
- TGI (IGROV1 ovarian): > 100 µM
- TGI (COLO 205 colon): > 100 µM
- TGI (786-0 renal): > 100 µM
- TGI (SR leukemia): > 100 µM
- TGI (SF-268 CNS): > 100 µM

SMILES: COc1ccc(CCNC(=O)[C@H]2CCCC[C@@H]2CCO)cc1OC
- TGI (SK-MEL-5 melanoma): > 100 µM
- TGI (PC-3 prostate): > 100 µM
- TGI (RXF 393 renal): > 100 µM
- TGI (NCI-H226 lung): > 100 µM
- TGI (HCT-116 colon): > 100 µM
- TGI (SNB-75 CNS): > 100 µM
- TGI (SNB-19 CNS): > 100 µM
- TGI (IGROV1 ovarian): > 100 µM
- TGI (UACC-62 melanoma): > 100 µM
- TGI (COLO 205 colon): > 100 µM
- TGI (786-0 renal): > 100 µM
- TGI (SR leukemia): > 100 µM
- TGI (SF-268 CNS): > 100 µM

SMILES: COc1cc2c(cc1OC)C(=O)N(NC1=NCCN1)C2=O
- TGI (SK-MEL-5 melanoma): > 100 µM
- TGI (PC-3 prostate): > 100 µM
- TGI (RXF 393 renal): > 100 µM
- TGI (NCI-H226 lung): > 100 µM
- TGI (HCT-116 colon): > 100 µM
- TGI (SNB-19 CNS): > 100 µM
- TGI (LOX IMVI melanoma): > 100 µM
- TGI (IGROV1 ovarian): > 100 µM
- TGI (UACC-62 melanoma): > 100 µM
- TGI (COLO 205 colon): > 100 µM
- TGI (786-0 renal): > 100 µM
- TGI (SR leukemia): > 100 µM
- TGI (SF-268 CNS): > 100 µM

SMILES: CC(=O)O[C@@H](C1C[C@@H](C)[C@H]2[C@@](O)(O1)[C@H](O)[C@@]1(C)C3=CC[C@H]4C(C)(C)[C@@H](OC5OCC(O)C(O)C5O)CC[C@@]45C[C@@]35CC[C@]21C)C(C)(C)O (some centres undefined)
- TGI (SK-MEL-5 melanoma): 32.7 µM
- TGI (PC-3 prostate): 50.7 µM
- TGI (RXF 393 renal): 36.9 µM
- TGI (NCI-H226 lung): 45.9 µM
- TGI (HCT-116 colon): 41.5 µM
- TGI (SNB-19 CNS): > 100 µM
- TGI (LOX IMVI melanoma): 42.4 µM
- TGI (IGROV1 ovarian): > 100 µM
- TGI (UACC-62 melanoma): 40.3 µM
- TGI (COLO 205 colon): 48.4 µM
- TGI (786-0 renal): 63.6 µM
- TGI (SR leukemia): 49.8 µM
- TGI (SF-268 CNS): > 100 µM

SMILES: COc1cccc(-c2nc(-c3cnccn3)n(COCCO)n2)c1
- TGI (SK-MEL-5 melanoma): > 100 µM
- TGI (PC-3 prostate): > 100 µM
- TGI (RXF 393 renal): > 100 µM
- TGI (HCT-116 colon): > 100 µM
- TGI (SNB-19 CNS): > 100 µM
- TGI (LOX IMVI melanoma): > 100 µM
- TGI (IGROV1 ovarian): > 100 µM
- TGI (UACC-62 melanoma): > 100 µM
- TGI (COLO 205 colon): > 100 µM
- TGI (786-0 renal): > 100 µM
- TGI (SR leukemia): > 100 µM
- TGI (SF-268 CNS): > 100 µM

SMILES: O=c1[nH]n(Cc2ccccc2Cl)c2ccccc12
- TGI (SK-MEL-5 melanoma): > 100 µM
- TGI (PC-3 prostate): > 100 µM
- TGI (NCI-H226 lung): > 100 µM
- TGI (HCT-116 colon): > 100 µM
- TGI (SNB-75 CNS): > 100 µM
- TGI (SNB-19 CNS): > 100 µM
- TGI (LOX IMVI melanoma): > 100 µM
- TGI (IGROV1 ovarian): > 100 µM
- TGI (UACC-62 melanoma): > 100 µM
- TGI (COLO 205 colon): > 100 µM
- TGI (786-0 renal): > 100 µM
- TGI (SR leukemia): > 100 µM
- TGI (SF-268 CNS): > 100 µM

SMILES: CC1(C)O[C@@H](CBr)C[C@H](C[C@H]2C[C@@H](O)C[C@@H](CCOCc3ccccc3)O2)O1
- TGI (SK-MEL-5 melanoma): > 100 µM
- TGI (PC-3 prostate): 39 µM
- TGI (NCI-H226 lung): 35.5 µM
- TGI (HCT-116 colon): 45.4 µM
- TGI (SNB-75 CNS): 36.9 µM
- TGI (SNB-19 CNS): 61.8 µM
- TGI (LOX IMVI melanoma): 71.8 µM
- TGI (IGROV1 ovarian): 42.6 µM
- TGI (UACC-62 melanoma): 34.4 µM
- TGI (COLO 205 colon): 54.4 µM
- TGI (786-0 renal): 39.8 µM
- TGI (SR leukemia): > 100 µM
- TGI (SF-268 CNS): 39.2 µM
